These results are taken from patent US20110082161A1, “POWDERS FOR RECONSTITUTION” (priority 2008, published 2011).

Structures are written as SMILES.

For data set [1] the following is noted: background statement; cited from earlier work.
The nature of data set [2]: Safety and tolerability in Phase I single-dose trial. Format: in vivo, human healthy subjects. The following applies: single doses of 200 mg TMC125, healthy subjects. An excerpt:
No clinically relevant safety issues were identified with respect to the parameters studied, including AEs, laboratory and cardiovascular safety, and physical and skin examinations.

On to `Cc1cc(C#N)cc(C)c1Oc1nc(Nc2ccc(C#N)cc2)nc(N)c1Br` [TMC125, 4-[[6-amino-5-bromo-2-[(4-cyanophenyl)amino]-4-pyrimidinyl]oxy]-3,5-dimethylbenzonitrile], for which the “solubility in aqueous media” value in data set [1] was “very insoluble”. The “safety and tolerability (AEs, laboratory, cardiovascular, physical and skin examinations)” value in data set [2] is “generally safe and well tolerated”.
